From ChEMBL document CHEMBL1157761, “Cytotoxic nor-chamigrane and chamigrane endoperoxides from a basidiomycetous fungus” (J Nat Prod, 2010)
Converted amounts (≈) assume the structure as drawn.

Columns and labels:
BT-474 = experiment: Cytotoxicity against human BT474 cells by MTT assay; assay type: functional, cell-based
SW-620 = experiment: Cytotoxicity against human SW620 cells by MTT assay; assay type: functional, cell-based

SMILES	IC50 (BT-474)	IC50 (SW-620)
CC1(C)CCC(=O)[C@H]2OO[C@@H]3C[C@@]21CC[C@]3(O)CO [MERULINS C]	1.57 µg/mL (≈ 5.81 µM)	4.11 µg/mL (≈ 15.2 µM)
CC1(C)CCC(=O)[C@H]2OO[C@@H]3C[C@]21CC[C@@]3(O)CO [MERULINS B]	> 10 µg/mL	> 10 µg/mL
CC1(C)CCC(=O)[C@@]2(C)OO[C@@H]3C[C@@]12CC[C@H]3O [MERULIN A]	4.98 µg/mL (≈ 19.6 µM)	4.84 µg/mL (≈ 19 µM)
